Ends that are not written are not given here.
Key:
[1] = system: rat pituitary cells; experiment: Growth hormone release in rat pituitary cells in tissue culture (RIA for rat growth hormone); type: cell-based; settings: for Growth Hormone Released, Percentage of Control / Growth Hormone Released: 3 hours incubation; for Growth Hormone Released: control 82
Method: The biological activity of (Leu^27)-GRF(1-44)-OH was compared with that of natural GRF(1-44)-NH2 which was isolated from a human pancreatic tumor of an individual suffering from acromegaly (Salk Institute standard hp-GRF-NH2 (NL-A-10)). The assay for biological activity, which is based on the ability to stimulate production of growth hormone in rat pituitary cells in tissue culture, was performed in the following manner.
Pituitaries from 30-40 male Sprague-Dawley rats (175 g) were removed aseptically after decapitation. The anterior lobes were collected, washed 3 times in sterile Hepes buffer (0.025M) (pH 7.35) and dispersed at 37° C. in 20-30-ml Hepes buffer (pH 7.35) containing collagenase (4 mg per ml) and Dispase (Protease grade II, 2 mg per ml). After gentle 100-110-min vortexing and trituration by Pasteur pipette, the dispersed cells were separated by centrifugation (150×g, 4 min) and re-suspended in Hepes buffer containing neuraminidase (8 μg/ml), and 200 μg/ml ethylenedinitrilotetraacetic acid (EDTA) disodium salt pH 7.35, for 10 min. The cells were washed twice with plating medium and plated on multiwell-plates (1.5×10^5 cells per ml) using the following defined medium: F-12/DMEM/(6:3:1) (Gibco: 430-1700/430-1600/320-2591) with 2 g BSA/l., 2.38 g Hepes/l, 50 mg Garamycin/l (Schering Co.). The medium in each well was supplemented either with (Leu^27)-GRF(1-44)-OH or natural GRF(1-44)-NH2 at concentrations ranging from 3.1 to 200 fmol. per ml. of medium. Control wells contained no supplement. Plating was done with this medium added with 2% fetal calf serum to ensure rapid fixation of the cells. On the fourth day the cells were washed twice with the defined medium without fetal calf serum. Finally 900 μl of defined medium was added to each well plus 100 μl of the same medium containing each individual treatment, in triplicate. After 3 hours of incubation the medium was collected and diluted as required to conduct radioimmunoassays (RIAs) for rat growth hormone. RIAs were conducted using Sinha's anti-murine GH immune serum.

[2] = system: growth hormone release; settings: compared with amidated 44 amino acid GRF; cited from earlier work

Compound	Relative potency compared to the Salk Institute standard ([1]; computerized analysis of the data of Tables 1 and 2, standard = GRF(1-44)-NH2)	Growth hormone releasing activity compared with GRF(1-44)-NH2 (in words) ([1]; data of Tables 1 and 2)	Growth Hormone Released, Percentage of Control ([1]; dose 3.1 f mol./ml.)	Growth Hormone Released ([1]; dose 3.1 f mol./ml.) [ng/mL]	Growth Hormone Released, Percentage of Control ([1]; dose 6.3 f mol./ml.)	Growth Hormone Released ([1]; dose 6.3 f mol./ml.) [ng/mL]	Growth Hormone Released, Percentage of Control ([1]; dose 12.5 f mol./ml.)	Growth Hormone Released ([1]; dose 12.5 f mol./ml.) [ng/mL]	Growth Hormone Released, Percentage of Control ([1]; dose 25.0 f mol./ml.)	Growth Hormone Released ([1]; dose 25.0 f mol./ml.) [ng/mL]	Growth Hormone Released, Percentage of Control ([1]; dose 50.0 f mol./ml.)	Growth Hormone Released ([1]; dose 50.0 f mol./ml.) [ng/mL]	Growth Hormone Released, Percentage of Control ([1]; dose 100.0 f mol./ml.)	Growth Hormone Released ([1]; dose 100.0 f mol./ml.) [ng/mL]	Growth Hormone Released, Percentage of Control ([1]; dose 200.0 f mol./ml.)	Growth Hormone Released ([1]; dose 200.0 f mol./ml.) [ng/mL]	Growth hormone released in vitro relative to the amount of peptide administered ([1]; in vitro)	Biological activity after removal of the amide group (in words) [2]
CC[C@H](C)[C@H](NC(=O)[C@H](C)NC(=O)[C@H](CC(=O)O)NC(=O)[C@H](C)NC(=O)[C@@H](N)Cc1ccc(O)cc1)C(=O)N[C@@H](Cc1ccccc1)C(=O)N[C@H](C(=O)N[C@@H](CC(N)=O)C(=O)N[C@@H](CO)C(=O)N[C@@H](Cc1ccc(O)cc1)C(=O)N[C@@H](CCCNC(=N)N)C(=O)N[C@@H](CCCCN)C(=O)N[C@H](C(=O)N[C@@H](CC(C)C)C(=O)NCC(=O)N[C@@H](CCC(N)=O)C(=O)N[C@@H](CC(C)C)C(=O)N[C@@H](CO)C(=O)N[C@@H](C)C(=O)N[C@@H](CCCNC(=N)N)C(=O)N[C@@H](CCCCN)C(=O)N[C@@H](CC(C)C)C(=O)N[C@@H](CC(C)C)C(=O)N[C@@H](CCC(N)=O)C(=O)N[C@@H](CC(=O)O)C(=O)N[C@H](C(=O)N[C@@H](CC(C)C)C(=O)N[C@@H](CO)C(=O)N[C@@H](CCCNC(=N)N)C(=O)N[C@@H](CCC(N)=O)C(=O)N[C@@H](CCC(N)=O)C(=O)NCC(=O)N[C@@H](CCC(=O)O)C(=O)N[C@@H](CO)C(=O)N[C@@H](CC(N)=O)C(=O)N[C@@H](CCC(N)=O)C(=O)N[C@@H](CCC(=O)O)C(=O)N[C@@H](CCCNC(=N)N)C(=O)NCC(=O)N[C@@H](C)C(=O)N[C@@H](CCCNC(=N)N)C(=O)N[C@@H](C)C(=O)N[C@@H](CCCNC(=N)N)C(=O)N[C@@H](CC(C)C)C(=O)O)[C@@H](C)CC)C(C)C)[C@@H](C)O [(Leu^27)-GRF(1-44)-OH]	1.063	about the same level as GRF(1-44)-NH2 or slightly higher	162 Percentage of Control	133	204 Percentage of Control	167	272 Percentage of Control	223	329 Percentage of Control	270	417 Percentage of Control	342	516 Percentage of Control	423	649 Percentage of Control	532	on the order of ten times or more the amount of (Leu^27)-GRF-OH administered	–
free acid form of the 44 amino acid GRF: 44 amino acid GRF with the amide group removed, free acid form (YADAIFTNSYRKVLGQLSARKLLQDIMSRQQGESNQERGARARL-OH; UniProt P01286 32-75, looked up)	–	–	–	–	–	–	–	–	–	–	–	–	–	–	–	–	–	significant loss of biological activity
